{"source": "DBAASP", "experiment_in_all_cases": "≥ marks a high value that may be exact or a test limit, other limits are often not marked, values filed in µg/mL are converted to µM", "key": {"[1]": {"system": "Vibrio alginolyticus"}, "[2]": {"system": "Vibrio campbellii"}, "[3]": {"system": "Vibrio parahaemolyticus"}, "[4]": {"system": "Vibrio harveyi"}, "[5]": {"system": "Escherichia coli"}, "[6]": {"system": "Micrococcus luteus"}, "[7]": {"system": "Staphylococcus epidermidis"}, "[8]": {"system": "Escherichia coli ATCC 25922"}, "[9]": {"system": "Candida albicans ATCC 10231"}, "[10]": {"system": "Pseudomonas aeruginosa PAO1"}, "[11]": {"system": "Klebsiella pneumoniae ATCC 13883"}, "[12]": {"system": "Staphylococcus aureus MU50"}, "[13]": {"system": "Bacillus subtilis 168"}, "[14]": {"system": "Staphylococcus aureus USA 300"}, "[15]": {"system": "Staphylococcus aureus Newman"}, "[16]": {"system": "Staphylococcus aureus USA 400"}, "[17]": {"system": "Candida glabrata ATCC 2001"}, "[18]": {"system": "Staphylococcus aureus USA 200"}, "[19]": {"system": "Staphylococcus epidermidis 1457"}, "[20]": {"system": "Candida tropicalis ATCC 13803"}, "[21]": {"system": "Staphylococcus aureus UAMS-1"}, "[22]": {"system": "Staphylococcus aureus MTCC 9542"}, "[23]": {"system": "Escherichia coli MG1655"}, "[24]": {"system": "Vibrio cholerae"}, "[25]": {"system": "Enterococcus faecalis ATCC 29212"}, "[26]": {"system": "Bacillus subtilis MTCC 14416"}, "[27]": {"system": "Pseudomonas aeruginosa ATCC 27853"}, "[28]": {"system": "Staphylococcus aureus ATCC 43300"}, "[29]": {"system": "Escherichia coli KCTC 2223"}, "[30]": {"system": "Staphylococcus aureus ATCC 15752"}, "[31]": {"system": "Micrococcus luteus ATCC 10240"}, "[32]": {"system": "Salmonella typhimurium KCTC 2370"}, "[33]": {"system": "Escherichia coli CMCC 44102"}, "[34]": {"system": "Staphylococcus epidermidis ATCC 12228"}, "[35]": {"system": "Staphylococcus aureus CMCC 26003"}, "[36]": {"system": "Escherichia coli JW2778 ΔygdD"}, "[37]": {"system": "Salmonella typhimurium SL1344"}, "[38]": {"system": "Salmonella enterica subsp. enterica serovar Enteritidis MH91989"}, "[39]": {"system": "Escherichia coli JJ2489"}, "[40]": {"system": "Escherichia coli MC1041"}, "[41]": {"system": "Escherichia coli JW0368 ΔsbmA"}, "[42]": {"system": "Escherichia coli BW25113"}, "[43]": {"system": "Escherichia coli J2210"}, "[44]": {"system": "Escherichia coli JW0013"}}, "data": [{"smiles": "CC[C@H](C)[C@H](NC(=O)[C@H](Cc1ccccc1)NC(=O)[C@H](Cc1ccc(O)cc1)NC(=O)[C@@H]1CCCN1C(=O)[C@H](CCCN=C(N)N)NC(=O)[C@@H](NC(=O)[C@H](CO)NC(=O)[C@H](Cc1ccc(O)cc1)NC(=O)[C@H](CO)NC(=O)[C@H](CS)NC(=O)[C@H](Cc1ccc(O)cc1)NC(C)=O)[C@@H](C)O)C(=O)N[C@@H](CCCN=C(N)N)C(=O)N[C@@H](Cc1c[nH]c2ccccc12)C(=O)N[C@@H](CCC(N)=O)C(=O)N[C@@H](CC(C)C)C(=O)N[C@@H](CCCCN)C(=O)N[C@@H](Cc1ccccc1)C(=O)N[C@@H](CCCCN)C(=O)N[C@H](C(=O)N[C@@H](CCCCN)C(=O)N[C@H](C(=O)N[C@@H](Cc1c[nH]c2ccccc12)C(=O)N[C@@H](CS)C(=O)N1CCC[C@H]1C(N)=O)[C@@H](C)CC)[C@@H](C)O", "note": "[YCSYSTRPYFIRWQLKFKTKIWCP]", "values": [{"measurement": "MIC", "setting": "[1]", "value": "≥ 64", "unit": "µM"}, {"measurement": "MIC", "setting": "[2]", "value": "≥ 64", "unit": "µM"}, {"measurement": "MIC", "setting": "[3]", "value": "≥ 64", "unit": "µM"}, {"measurement": "MIC", "setting": "[4]", "value": "≥ 64", "unit": "µM"}, {"measurement": "MIC", "setting": "[5]", "value": "> 64", "unit": "µM"}, {"measurement": "MIC", "setting": "[6]", "value": "≥ 64", "unit": "µM"}, {"measurement": "MIC", "setting": "[7]", "value": "≥ 64", "unit": "µM"}]}, {"smiles": "CC[C@H](C)[C@H](NC(=O)CNC(=O)[C@H](CO)NC(=O)[C@@H](NC(=O)[C@H](CC(C)C)NC(=O)[C@H](CCCN=C(N)N)NC(=O)CNC(=O)[C@@H](NC(=O)[C@@H](NC(=O)[C@@H]1CCCN1C(=O)[C@H](CC(C)C)NC(=O)[C@@H](N)Cc1ccccc1)[C@@H](C)CC)C(C)C)[C@@H](C)CC)C(=O)N[C@@H](CC(C)C)C(N)=O", "note": "[FLPIVGRLISGIL]", "values": [{"measurement": "MIC", "setting": "[8]", "value": "> 50", "unit": "µM"}, {"measurement": "MIC", "setting": "[9]", "value": 50, "unit": "µM"}, {"measurement": "MIC", "setting": "[10]", "value": "> 50", "unit": "µM"}, {"measurement": "MIC", "setting": "[11]", "value": "≥ 50", "unit": "µM"}, {"measurement": "MIC", "setting": "[12]", "value": 12.5, "unit": "µM"}, {"measurement": "MIC", "setting": "[13]", "value": "≥ 35.4", "unit": "µM"}, {"measurement": "MIC", "setting": "[14]", "value": 12.5, "unit": "µM"}, {"measurement": "MIC", "setting": "[15]", "value": 12.5, "unit": "µM"}, {"measurement": "MIC", "setting": "[16]", "value": 12.5, "unit": "µM"}, {"measurement": "MIC", "setting": "[17]", "value": "≥ 50", "unit": "µM"}, {"measurement": "MIC", "setting": "[18]", "value": 25, "unit": "µM"}, {"measurement": "MIC", "setting": "[19]", "value": 12.5, "unit": "µM"}, {"measurement": "MIC", "setting": "[20]", "value": 8.8, "unit": "µM"}, {"measurement": "MIC", "setting": "[21]", "value": 25, "unit": "µM"}]}, {"smiles": "CC[C@H](C)[C@@H]1NC(=O)[C@H](CCCCN)NC(=O)[C@@H](NC(=O)[C@H](CC(C)C)NC(=O)[C@@H](NC(=O)[C@H](CCC(N)=O)NC(=O)[C@@H]2CCCN2C(=O)[C@H](CC(C)C)NC(=O)[C@H](Cc2ccccc2)NC(=O)[C@H](CC(N)=O)NC(=O)[C@H](C)NC(=O)[C@H](C)NC(=O)[C@@H](N)CC(C)C)[C@@H](C)CC)CSSC[C@@H](C(N)=O)NC(=O)[C@H](CCCCN)NC(=O)[C@H](CCCN=C(N)N)NC(=O)[C@H](C)NC1=O", "note": "[LAANFLPQILCKIARKC]", "values": [{"measurement": "MIC", "setting": "[22]", "value": 3.23, "unit": "µM"}, {"measurement": "MIC", "setting": "[23]", "value": 6.57, "unit": "µM"}, {"measurement": "MIC", "setting": "[24]", "value": 6.57, "unit": "µM"}, {"measurement": "MIC", "setting": "[25]", "value": 52.6, "unit": "µM"}, {"measurement": "MIC", "setting": "[26]", "value": 26.3, "unit": "µM"}, {"measurement": "MIC", "setting": "[27]", "value": "> 52.6", "unit": "µM"}, {"measurement": "MIC", "setting": "[28]", "value": 26.3, "unit": "µM"}]}, {"smiles": "CC(C)C[C@H](NC(=O)[C@H](CCCCN)NC(=O)[C@H](CCC(N)=O)NC(=O)[C@H](CCCCN)NC(=O)[C@H](CC(C)C)NC(=O)[C@H](CC(C)C)NC(=O)[C@H](CCC(N)=O)NC(=O)[C@H](CC(C)C)NC(=O)[C@H](CC(C)C)NC(=O)[C@@H]1CCCN1C(=O)[C@H](CCCN=C(N)N)NC(=O)[C@H](CC(C)C)NC(=O)[C@H](CC(C)C)NC(=O)[C@H](CCCN=C(N)N)NC(=O)CNC(=O)CNC(=O)CNC(=O)[C@@H]1CCCN1C(=O)[C@@H]1CCCN1C(=O)CNC(=O)[C@H](CCCN=C(N)N)NC(=O)[C@@H](NC(=O)[C@H](CCCCN)NC(=O)[C@@H](N)CCCN=C(N)N)C(C)C)C(=O)N[C@@H](CCCN=C(N)N)C(=O)O", "note": "[RKVRGPPGGGRLLRPLLQLLKQKLR]", "values": [{"measurement": "MIC", "setting": "[29]", "value": 2, "unit": "µM"}, {"measurement": "MIC", "setting": "[30]", "value": 2, "unit": "µM"}, {"measurement": "MIC", "setting": "[31]", "value": 0.5, "unit": "µM"}, {"measurement": "MIC", "setting": "[32]", "value": 4, "unit": "µM"}]}, {"smiles": "CC[C@H](C)[C@H](NC(=O)[C@H](CCCN=C(N)N)NC(=O)[C@H](CCCN=C(N)N)NC(=O)[C@H](CC(C)C)NC(=O)[C@H](Cc1ccccc1)NC(=O)[C@@H]1CCCN1C(=O)[C@H](CCCN=C(N)N)NC(=O)[C@H](CCSC)NC(=O)[C@@H](NC(=O)[C@H](CCCCN)NC(=O)[C@H](CCCCN)NC(=O)[C@H](CS)NC(=O)[C@@H](NC(=O)CNC(=O)[C@H](CCCN=C(N)N)NC(=O)[C@H](CC(C)C)NC(=O)[C@@H](NC(=O)[C@@H](N)CCCCN)[C@@H](C)CC)C(C)C)[C@@H](C)CC)C(=O)N[C@@H](CO)C(=O)N[C@@H](CCCCN)C(=O)N[C@@H](CC(=O)O)C(=O)N[C@H](C(=O)N[C@@H](CC(C)C)C(=O)N[C@H](C(=O)NCC(=O)N[C@@H](CCCCN)C(=O)N[C@@H](CCCCN)C(N)=O)[C@@H](C)O)[C@@H](C)CC", "note": "[KILRGVCKKIMRPFLRRISKDILTGKK]", "values": [{"measurement": "MIC", "setting": "[33]", "value": 4, "unit": "µM"}, {"measurement": "MIC", "setting": "[34]", "value": 4, "unit": "µM"}, {"measurement": "MIC", "setting": "[27]", "value": 16, "unit": "µM"}, {"measurement": "MIC", "setting": "[35]", "value": 4, "unit": "µM"}]}, {"smiles": "CC[C@H](C)[C@H](NC(=O)[C@H](Cc1ccc(O)cc1)NC(=O)[C@@H](NC(=O)[C@@H]1CCCN1C(=O)[C@H](CCCCN)NC(=O)[C@H](CC(N)=O)NC(=O)[C@H](CC(N)=O)NC(=O)CN)C(C)C)C(=O)N1CCC[C@H]1C(=O)N[C@@H](CCC(N)=O)C(=O)N1CCC[C@H]1C(=O)N[C@@H](CCCN=C(N)N)C(=O)N1CCC[C@H]1C(=O)N1CCC[C@H]1C(=O)N[C@@H](CCCN=C(N)N)C(=O)N1CCC[C@H]1C(=O)N[C@@H](CCCN=C(N)N)C(=O)N[C@@H](CC(C)C)C(=O)O", "note": "[GNNKPVYIPQPRPPRPRL]", "values": [{"measurement": "MIC", "setting": "[36]", "value": 0.096, "unit": "µM"}, {"measurement": "MIC", "setting": "[37]", "value": 0.126, "unit": "µM"}, {"measurement": "MIC", "setting": "[38]", "value": 0.067, "unit": "µM"}, {"measurement": "MIC", "setting": "[39]", "value": 0.067, "unit": "µM"}, {"measurement": "MIC", "setting": "[40]", "value": 0.096, "unit": "µM"}, {"measurement": "MIC", "setting": "[41]", "value": 0.384, "unit": "µM"}, {"measurement": "MIC", "setting": "[42]", "value": 0.048, "unit": "µM"}, {"measurement": "MIC", "setting": "[43]", "value": 0.133, "unit": "µM"}, {"measurement": "MIC", "setting": "[44]", "value": 0.048, "unit": "µM"}]}]}
